The source of these data is patent US7825126B2 (The United States of America as represented by the …, priority 2004, dated 2010).

For assay [1], the target named is T1, rat A3 adenosine receptor (Rattus norvegicus, UniProt P28647).
T1 construct: expressed in transfected cells; host or cells: CHO cells
T1 sequence (P28647 1-320): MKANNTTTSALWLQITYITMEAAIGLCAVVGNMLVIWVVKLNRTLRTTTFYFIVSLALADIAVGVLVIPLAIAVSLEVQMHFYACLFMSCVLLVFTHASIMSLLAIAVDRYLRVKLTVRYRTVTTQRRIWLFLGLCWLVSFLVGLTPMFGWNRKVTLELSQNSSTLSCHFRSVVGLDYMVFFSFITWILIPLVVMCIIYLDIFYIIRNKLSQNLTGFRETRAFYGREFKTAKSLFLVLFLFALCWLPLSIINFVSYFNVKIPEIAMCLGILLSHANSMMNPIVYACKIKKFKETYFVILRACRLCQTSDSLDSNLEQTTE

In assay [2] the target is T2, human A2B adenosine receptor (hA2BAR) (Homo sapiens, UniProt P29275).
T2 sequence (P29275 1-332): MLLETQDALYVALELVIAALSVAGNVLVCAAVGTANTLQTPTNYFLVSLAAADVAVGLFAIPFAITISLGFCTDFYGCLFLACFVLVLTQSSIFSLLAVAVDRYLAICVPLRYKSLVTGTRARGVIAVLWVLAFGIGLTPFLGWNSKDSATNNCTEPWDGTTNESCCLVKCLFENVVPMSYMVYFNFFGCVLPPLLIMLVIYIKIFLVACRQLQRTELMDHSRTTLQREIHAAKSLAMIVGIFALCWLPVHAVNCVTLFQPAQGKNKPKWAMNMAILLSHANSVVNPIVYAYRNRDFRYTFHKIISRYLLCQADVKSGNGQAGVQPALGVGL
Particulars: data from literature (footnotes c, f, h); cited from earlier work.

Assay [3] has as its target T3, human A1 receptors (Homo sapiens, UniProt P30542).
T3 construct: expressed in transfected cells
T3 sequence (P30542 1-326): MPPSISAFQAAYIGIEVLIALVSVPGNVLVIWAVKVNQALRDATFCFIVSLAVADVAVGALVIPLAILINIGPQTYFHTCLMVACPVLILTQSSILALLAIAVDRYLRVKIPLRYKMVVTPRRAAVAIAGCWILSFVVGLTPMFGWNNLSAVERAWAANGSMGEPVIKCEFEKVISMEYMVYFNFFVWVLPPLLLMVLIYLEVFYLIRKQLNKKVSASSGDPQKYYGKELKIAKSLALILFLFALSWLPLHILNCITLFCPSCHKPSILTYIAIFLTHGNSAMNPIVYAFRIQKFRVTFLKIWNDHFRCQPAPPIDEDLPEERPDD

Assay [4] addresses T4, human A3 adenosine receptor (Homo sapiens, UniProt P0DMS8).
T4 sequence (P0DMS8 1-318): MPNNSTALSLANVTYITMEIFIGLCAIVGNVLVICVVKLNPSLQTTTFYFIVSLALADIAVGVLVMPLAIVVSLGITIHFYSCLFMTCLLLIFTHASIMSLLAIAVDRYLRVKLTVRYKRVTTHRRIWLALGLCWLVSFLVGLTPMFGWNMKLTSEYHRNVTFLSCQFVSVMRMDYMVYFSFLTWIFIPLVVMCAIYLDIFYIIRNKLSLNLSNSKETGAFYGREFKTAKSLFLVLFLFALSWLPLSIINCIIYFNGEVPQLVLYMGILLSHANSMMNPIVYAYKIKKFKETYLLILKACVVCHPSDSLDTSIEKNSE
Also on record: expressed in transfected cells; host or cells: CHO cells. The conditions noted are these: relative to 10 μM Cl-IB-MECA, data from literature (footnotes c, d, e, f); cited from earlier work.

Assay [5] deals with T1, rat A3 adenosine receptor. Kind of assay: Binding at rat A3 adenosine receptor ([125I]I-AB-MECA, CHO cell membranes). The conditions noted are these: rat A3 AR in CHO cells; unit nM printed in b194 only; read-out: Ki(rA3AR).
Experimental: (§1) Striatal and forebrain tissues from Wistar rats were homogenized in ice-cold 50 mM Tris-HCl buffer, pH 7.4, using an electric homogenizer. The homogenate was centrifuged at 20,000 g for 10 min at 4° C., and the pellet was washed in fresh buffer. The final pellet was stored at −80° C. until the binding experiments. The protein concentration was measured using the Bradford assay. […] The mixtures were incubated at 37° C. for 60 min. […] Filters were washed three times with 9 ml ice-cold buffer. Radioactivity was determined in a Beckman 5500B γ-counter. Statistical analysis Binding and functional parameters were calculated using Prism 5.0 software (GraphPAD, San Diego, Calif., USA). IC50 values obtained from competition curves were converted to Ki values using the Cheng-Prusoff equation.
Assay [6] addresses T4, human A3 adenosine receptor. Also on record: expressed in transfected cells; host or cells: CHO cells. The conditions noted are these: data from literature (footnotes c, d, e, f); read-out: Ki(hA3AR); cited from earlier work.
In assay [7] the target is T5, human A2A receptors (Homo sapiens, UniProt P29274).
T5 construct: expressed in transfected cells

In assay [8] the target is T5, human A2A receptors. Kind of assay: Binding at human A2A adenosine receptor ([3H]CGS21680, HEK-293 cell membranes). The conditions noted are these: [3H]CGS 21680; for Ki: mean ± s.e.m., n = 3-5, read-out: Ki(hA2AAR).
Experimental: (§2) Binding assays at the A1 and A2A receptors. […] Reaction was terminated by filtration with GF/B filters.
(§3) Statistical analysis Binding and functional parameters were calculated using Prism 5.0 software (GraphPAD, San Diego, Calif., USA). IC50 values obtained from competition curves were converted to Ki values using the Cheng-Prusoff equation.
The target in assay [9] is T3, human A1 receptors. Description: Binding at human A1 adenosine receptor ([3H]R-PIA, CHO cell membranes). The conditions noted are these: mean ± s.e.m., n = 3-5, read-out: Ki(hA1AR).
Experimental: as §2, §3
Assay [10] has as its target T4, human A3 adenosine receptor. Description: Cyclic AMP accumulation assay (inhibition of forskolin-stimulated cAMP), CHO cells expressing human A3 adenosine receptor. The conditions noted are these: 10 μM, relative to 10 μM Cl-IB-MECA.
Experimental: (§4) The cyclic AMP accumulation assay was performed as follows. Intracellular cyclic AMP levels were measured with a competitive protein binding method. […] After centrifugation and resuspension in medium, cells were plated in 24-well plates in 1.0 ml medium. […] The reaction was terminated by removing the supernatant, and cells were lysed upon the addition of 200 μL of 0.1 M ice-cold HCl. The cell lysate was resuspended and stored at −20° C. For determination of cyclic AMP production, protein kinase A (PKA) was incubated with [^3H]cyclic AMP (2 nM) in K2HPO4/EDTA buffer (K2HPO4, 150 mM; EDTA, 10 mM), 20 μL of the cell lysate, and 30 μL 0.1 M HCl or 50 μL of cyclic AMP solution (0-16 pmol/200 μL for standard curve). Bound radioactivity was separated by rapid filtration through Whatman GF/C filters and washed once with cold buffer. Bound radioactivity was measured by liquid scintillation spectrometry.
(§5) Forskolin (10 μM) was used to stimulate cyclic AMP levels.
For assay [11] the target is unchanged.
Experimental: as §4, §5
Assay [12] deals with T2, human A2B adenosine receptor (hA2BAR). Description: Activation of human A2B adenosine receptor at 10 μM. The class given is cell-based. Particulars: CHO cells.
In assay [13] the target is T4, human A3 adenosine receptor. Kind of assay: Binding at human A3 adenosine receptor ([125I]I-AB-MECA, CHO cell membranes). More on the design: expressed in transfected cells; host or cells: CHO cells. The conditions noted are these: for Ki: [125I]I-AB-MECA, mean ± s.e.m., n = 3-5, read-out: Ki(hA3AR).
Experimental: as §1
The mark [14] stands for this setting: rat A3 AR; data from literature (footnotes c, d, f, i); unit nM printed in b194 only; read-out: Ki(rA3AR); cited from earlier work.
The mark [15] stands for this setting: data from literature (footnotes c, d, f, g); read-out: Ki(hA1AR); cited from earlier work.
Where [16] appears, read: read-out: Ki(hA1AR); data from literature (footnotes c, d, f, g); cited from earlier work.
Setting [17] is: 10 μM; data from Ohno et al. (footnote c); cited from earlier work.
Where [18] appears, read: read-out: Ki(hA2AAR); data from literature (footnotes c, d, f, g); cited from earlier work.

Read-outs that look alike come from different tables or passages of the source.

One may read the Ki as a measure of affinity in units of concentration, obtained from inhibition or displacement.

T5 sequence (P29274 whole entry): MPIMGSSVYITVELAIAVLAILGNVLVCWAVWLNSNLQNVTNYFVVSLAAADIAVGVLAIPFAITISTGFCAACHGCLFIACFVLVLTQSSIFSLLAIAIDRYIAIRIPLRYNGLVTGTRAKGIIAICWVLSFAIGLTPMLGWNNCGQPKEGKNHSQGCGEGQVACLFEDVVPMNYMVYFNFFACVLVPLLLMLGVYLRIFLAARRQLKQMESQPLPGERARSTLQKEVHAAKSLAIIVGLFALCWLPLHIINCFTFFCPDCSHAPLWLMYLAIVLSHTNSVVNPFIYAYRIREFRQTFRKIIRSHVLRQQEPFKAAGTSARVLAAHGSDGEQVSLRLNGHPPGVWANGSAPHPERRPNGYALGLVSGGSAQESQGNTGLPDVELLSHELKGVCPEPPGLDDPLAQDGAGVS

`OCC1OC(n2cnc3c(NCc4cccc(I)c4)ncnc32)C(O)C1O` (centres unmarked) [Compound 1a]: the Ki in [1] (setting [14]) is 9.5 ± 1.4 nM; in assay [3] (setting [15]) it was 7.4 ± 1.7 nM. For the same compound, in [2], the “% Activation (hA2BAR) at 10 μM” value was 58%. In addition, the “% Activation (hA3AR) at 10 μM” value in assay [4] is 46 ± 8%.
For `OCC1OC(n2cnc3c(NCc4cccc(I)c4)nc(Cl)nc32)C(O)C1O` (centres unmarked) [Compound 1b], the inhibition constant Ki in assay [1] (read-out: Ki(rA3AR); rat A3 AR; data from literature (footnotes c, d, f, i); unit nM printed in b194 only; cited from earlier work) is 2.7 ± 1.2 nM; in assay [3] (setting [16]), 17 ± 2 nM. The “% Activation (hA2BAR) at 10 μM” value in assay [2] is listed as 16%. Besides, the “% Activation (hA3AR) at 10 μM” value in assay [4] is 0%.
As for `CNC(=O)[C@@]12C[C@@H]1[C@@H](n1cnc3c(NCc4cccc(I)c4)nc(Cl)nc31)[C@H](O)[C@@H]2O` [Compound 5, (1′S,2′R,3′S,4′R,5′S)-[4′-(2-chloro-6-{[(3-iodophenyl)methyl]amino}purin-9-yl)-2′,3′-dihydroxybicyclo[3.1.0]hexyl]-N-methylcarboxamide], in [5], the Ki is 1.1 ± 0.1 nM. For the same compound, the “% Activation (hA3AR) at 10 μM” value in [4] is on record as 100^e %.
For `CNc1ncnc2c1ncn2C1OC(CO)C(O)C1O` (centres unmarked) [Compound 6], the Ki in assay [1] (setting [14]) is 6400 ± 1600 nM; in assay [6] it was 9.3 ± 0.4 nM; in [3] (setting [16]), 6000 ± 2000 nM. The “% Activation (hA2BAR) at 10 μM” value in [2] is 16%. In assay [7] (setting [17]), the “% displ. at 10 μM (hA2AAR)” value is recorded as 17%.
On to `CNc1nc(N)nc2c1ncn2C1OC(CO)C(O)C1O` (centres unmarked) [Compound 7], for which the Ki was greater than 10000 nM in [1] (setting [14]), 39 ± 2 nM in [6] and 480 ± 20 nM in [3] (setting [16]). For the same compound, the “% Activation (hA2BAR) at 10 μM” value in [2] was 11%. Moreover, the “% displ. at 10 μM (hA2AAR)” value in [7] (setting [17]) is on record as 15%. The “% Activation (hA3AR) at 10 μM” value in [4] is given as 98 ± 3%.
For the compound `OCC1OC(n2cnc3c(NC4CC4c4ccccc4)ncnc32)C(O)C1O` (centres unmarked) [Compound 10], the Ki in assay [1] (setting [14]) was 400 ± 30 nM; in assay [7] (data from literature (footnotes c, d, f, g); read-out: Ki(hA2AAR); cited from earlier work) it was 2500 ± 700 nM. In addition, the “% Activation (hA2BAR) at 10 μM” value in assay [2] was 26%. In assay [4], the “% Activation (hA3AR) at 10 μM” value was 101 ± 5%.
In the case of `Cc1ccccc1CNc1ncnc2c1ncn2C1OC(CO)C(O)C1O` (centres unmarked) [Compound 11], the Ki in [1] (setting [14]) was 38 ± 15 nM; in [6], 47 ± 11 nM; in assay [3] (setting [16]), 39 ± 8 nM; in [7] (setting [18]), 760 ± 110 nM. The “% Activation (hA3AR) at 10 μM” value in [4] was 100 ± 3%.
Turning to `OCC1OC(n2cnc3c(NCc4cccnc4)ncnc32)C(O)C1O` (centres unmarked) [Compound 12], the Ki in [1] (setting [14]) was 290 ± 70 nM; in assay [6] it was 4.5 ± 1.1 nM; in [3] (setting [15]), 42 ± 4 nM; in assay [7] (setting [18]) it was 2300 ± 120 nM. Also, the “% Activation (hA3AR) at 10 μM” value in assay [4] is recorded as 100 ± 6%.
As to `OCC1OC(n2cnc3c(NCC(c4ccccc4)c4ccccc4)ncnc32)C(O)C1O` (centres unmarked) [Compound 13], the Ki in assay [1] (setting [14]) is 540 ± 200 nM. Further, the “% Activation (hA2BAR) at 10 μM” value in assay [2] was 70%. Also, the “% Activation (hA3AR) at 10 μM” value in assay [4] is reported as 0%.
On to `CNC(=O)[C@@]12C[C@@H]1[C@@H](n1cnc3c(NC)nc(Cl)nc31)[C@H](O)[C@@H]2O` [Compound 14], for which, in [8], the “% displ. at 10 μM (hA2AAR)” value was determined as 6%. For the same compound, the figures for the Ki in assay [9] and in assay [5] were 2100 ± 1700 nM and 160 ± 30 nM, respectively. For the same compound, the “% Activation (hA3AR) at 10 μM” value in [10] was 104 ± 7%.
As to `CNC(=O)C12CC1C(n1cnc3c(NCc4cccc(Br)c4)nc(Cl)nc31)C(O)C2O` (stereo not drawn) [Compound 17, (1′S,2′R,3′S,4′S,5′S)-4′-[6-(3-Bromobenzylamino)-2-chloro-purin-9-yl]-2′,3′-dihydroxy-bicyclo[3.1.0]hexane-1′-carboxylic acid methyl amide], the Ki in assay [8] came to 1300 ± 100 nM; in [9], 270 ± 70 nM; in assay [5] it was 0.76 ± 0.08 nM; in assay [13] it was 0.38 nM. Also, in assay [11], the “% Activation (hA3AR) at 10 μM” value is reported as 100 ± 11%. Besides, the “% Activation (hA2BAR) at 10 μM” value in [12] came out at 38%.
For the compound `CNC(=O)[C@@]12C[C@@H]1[C@H](n1cnc3c(NCc4cccc(Cl)c4)nc(Cl)nc31)[C@H](O)[C@@H]2O` [Compound 18, (1′S,2′R,3′S,4′S,5′S)-4′-[6-(3-Chlorobenzylamino)-2-chloro-purin-9-yl]-2′,3′-dihydroxy-bicyclo[3.1.0]hexane-1′-carboxylic acid methylamide], the Ki in [8] was 2300 ± 100 nM; in [9], 260 ± 60 nM; in assay [5], 1 ± 0.1 nM. For the same compound, the “% Activation (hA2BAR) at 10 μM” value in [12] came out at 38%.
On to `CNC(=O)C12CC1C(n1cnc3c(NCc4cc(Cl)ccc4OCc4ccccc4)nc(Cl)nc31)C(O)C2O` (stereo not drawn) [Compound 24, (1′S,2′R,3′S,4′S,5′S)-4′-[6-(5-Chloro-2-benzyloxy-benzylamino)-2-chloro-purin-9-yl]-2′,3′-dihydroxy-bicyclo[3.1.0]hexane-1′-carboxylic acid methylamide], for which the Ki came out at 850 ± 160 nM in assay [8], 1200 ± 200 nM in assay [9], 11 ± 3 nM in [5] and 5.2 ± 1.3 nM in assay [13]. Further, the “% Activation (hA2BAR) at 10 μM” value in assay [12] worked out at 49%. Further, the “% Activation (hA3AR) at 10 μM” value in assay [10] worked out at 110 ± 10%.
`CNC(=O)C12CC1C(n1cnc3c(NCc4cc(OC)ccc4OC)nc(Cl)nc31)C(O)C2O` (stereo not drawn) [Compound 26, (1′S,2′R,3′S,4′S,5′S)-4′-[6-(2,5-Dimethoxy-benzylamino)-2-chloro-purin-9-yl]-2′,3′-dihydroxy-bicyclo[3.1.0]hexane-1′-carboxylic acid methylamide]: in assay [8], the “% displ. at 10 μM (hA2AAR)” value stood at 52%. Moreover, in assay [12], the “% Activation (hA2BAR) at 10 μM” value came out at 0%. In addition, the Ki was found to be 1600 ± 200 nM in [9], 0.87 ± 0.24 nM in [5] and 1.4 ± 0.2 nM in assay [13]. Moreover, in [10], the “% Activation (hA3AR) at 10 μM” value is 107 ± 10%. The “Selectivity for the human A3 adenosine receptor in comparison to the A1 adenosine receptor” value in assay [13] (ratio of Ki hA1 / hA3) is given as 1200 fold.
